Assays:
Assay type in all cases: in vivo
[1] = system: Matricaria inodora (MATIN); assay: Pre-emergence herbicidal action against MATIN; details: dosage 320 g/ha
Method in brief: (§1)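 Pre-emergence soil-surface spray of compound, formulated as wettable powder or emulsion concentrate, in aqueous suspension or emulsion with 0.5% additive (600 l/ha; rate 320 g/ha or less). Activity rated visually after roughly 3 weeks in the greenhouse as a percentage of untreated controls, 0% meaning no difference.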

Setaria viridis (SETVI) [2] = assay: Post-emergence herbicidal action against SETVI
Method in brief: (§2)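 Post-emergence greenhouse spray, one-leaf stage, 600 l/ha water plus 0.5% additive; WP or EC formulations; application rates 320 g/ha or lower. Visual % damage vs untreated controls at ~3 weeks.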

[3] = system: Echinochloa crus-galli (ECHCG); assay: Pre-emergence herbicidal action against ECHCG; details: dosage 320 g/ha
Method in brief: as §1

Viola tricolor (VIOTR) [4] = assay: Pre-emergence herbicidal action against VIOTR
Method in brief: as §1

[5] = system: Echinochloa crus-galli (ECHCG); assay: Post-emergence herbicidal action against ECHCG
Method in brief: as §2

Lolium rigidum (LOLRI) [6] = assay: Pre-emergence herbicidal action against LOLRI
Method in brief: as §1

[7] = system: Pharbitis purpurea (PHBPU); assay: Post-emergence herbicidal action against PHBPU; details: dosage 320 g/ha
Method in brief: as §2

Oryza sativa (ORYSA) = details: crop plant compatibility, 80 g/ha, effect in comparison to untreated controls
Method in brief: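 One-leaf-stage crops (2–3 wk post-sowing, sandy loam, greenhouse) sprayed on green parts; 0.5% additive, 600 l/ha water. Rated by eye ~3 wk later, % vs untreated; suffixes a/b/c mark different dosages.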

Viola tricolor (VIOTR) [8] = assay: Post-emergence herbicidal action against VIOTR
Method in brief: as §2

[9] = system: Polygonum convolvulus (POLCO); assay: Post-emergence herbicidal action against POLCO
Method in brief: as §2

[10] = system: Polygonum convolvulus (POLCO); assay: Pre-emergence herbicidal action against POLCO
Method in brief: as §1

[11] = system: Amaranthus retroflexus (AMARE); assay: Pre-emergence herbicidal action against AMARE; details: visual scoring after about 3 weeks vs untreated controls
Method in brief: as §1

Setaria viridis (SETVI) [12] = assay: Pre-emergence herbicidal action against SETVI; details: dosage 320 g/ha
Method in brief: as §1

[13] = system: Amaranthus retroflexus (AMARE); assay: Post-emergence herbicidal action against AMARE
Method in brief: as §2

Zea mays (ZEAMX) = details: pre-emergence, 80 g/ha, crop plant compatibility, in comparison to untreated controls
Description: Seeds of monocotyledonous and dicotyledonous weed plants and crop plants are placed in plastic or organic planting pots and covered with soil. The compounds of the invention, formulated in the form of wettable powders (WP) or as emulsion concentrates (EC), are then applied to the surface of the covering soil as aqueous suspension or emulsion with addition of 0.5% additive at a water application rate equivalent to 600 l/ha. After the treatment, the pots are placed in a greenhouse and kept under good growth conditions for the trial plants. After about 3 weeks, the effect of the preparations is scored visually in comparison with untreated controls as percentages. For example, 100% activity=the plants have died, 0% activity=like control plants.
The observed effects on selected crop plants are reported here in comparison to the untreated controls (values in %). The appendices “a” “b” and “c” give differentiation by dosage used with otherwise the same crop plants tested.

[14] = system: Matricaria inodora (MATIN); assay: Post-emergence herbicidal action against MATIN; details: dosage 320 g/ha
Method in brief: as §2

Avena fatua (AVEFA) [15] = assay: Post-emergence herbicidal action against AVEFA; details: visual rating about 3 weeks after treatment
Method in brief: as §2

[16] = system: Abutilon theophrasti (ABUTH); assay: Post-emergence herbicidal action against ABUTH; details: 320 g/ha, visual rating about 3 weeks after treatment vs untreated controls (100% = plants have died, 0% = like control plants)
Method in brief: as §2

[17] = system: Alopecurus myosuroides (ALOMY); assay: Pre-emergence herbicidal action against ALOMY; details: 320 g/ha; scored visually after about 3 weeks; 100% = plants have died
Method in brief: as §1

[18] = system: Alopecurus myosuroides (ALOMY); assay: Post-emergence herbicidal action against ALOMY; details: visual rating about 3 weeks after treatment vs untreated controls (100% = plants have died, 0% = like control plants)
Method in brief: as §2

Lolium rigidum (LOLRI) [19] = assay: Post-emergence herbicidal action against LOLRI
Method in brief: as §2

[20] = system: Verconica persica (VERPE); assay: Pre-emergence herbicidal action against VERPE
Method in brief: as §1

[21] = system: Verconica persica (VERPE); assay: Post-emergence herbicidal action against VERPE
Method in brief: as §2

Avena fatua (AVEFA) [22] = assay: Pre-emergence herbicidal action against AVEFA; details: 320 g/ha, visual scoring after about 3 weeks vs untreated controls
Method in brief: as §1

[23] = 80 g/ha, visual rating about 3 weeks after treatment vs untreated controls (100% = plants have died, 0% = like control plants)
[24] = 320 g/ha, visual rating about 3 weeks after treatment

Row | SMILES | Pre-emergence action against MATIN in % [1] [%] | Post-emergence action against SETVI in % (Setaria viridis (SETVI) [2]; dosage 320 g/ha) [%] | Pre-emergence action against ECHCG in % [3] [%] | Pre-emergence action against VIOTR in % (Viola tricolor (VIOTR) [4]; 320 g/ha, Viola tricolor) [%] | Post-emergence action against ECHCG in % ([5]; dosage 80 g/ha) [%] | Post-emergence action against ECHCG in % ([5]; dosage 320 g/ha) [%] | Pre-emergence action against LOLRI in % (Lolium rigidum (LOLRI) [6]; dosage 320 g/ha) [%] | Post-emergence action against ORYSA in % (Oryza sativa (ORYSA)) [%] | Post-emergence action against VIOTR in % (Viola tricolor (VIOTR) [8]; 80 g/ha) [%] | Post-emergence action against VIOTR in % (Viola tricolor (VIOTR) [8]; 320 g/ha) [%] | Post-emergence action against POLCO in % ([9]; dosage 320 g/ha) [%] | Pre-emergence action against POLCO in % ([10]; dosage 320 g/ha) [%] | Pre-emergence action against AMARE in % ([11]; 320 g/ha) [%] | Pre-emergence action against SETVI in % (Setaria viridis (SETVI) [12]) [%] | Post-emergence action against AMARE in % [13, 23] [%] | Post-emergence action against AMARE in % [13, 24] [%] | Pre-emergence action against ZEAMX in % (Zea mays (ZEAMX)) [%] | also measured
1 | O=C(O)CSc1nn(-c2ccccn2)c(-c2cncc(F)c2)c1I [Example I-229] | 80 | 80 | 90 | 90 | 80 | 80 | 80 | 0 | 80 | 80 | 80 | 90 | 80 | 90 | 80 | 80 | 0 | Post-emergence action against SETVI in % (Setaria viridis (SETVI) [2]; dosage 80 g/ha): 80%; Post-emergence action against PHBPU in % [7]: 80%; Post-emergence action against MATIN in % [14]: 80%
2 | CCOC(=O)[C@@H](C)Oc1nn(-c2ncccc2Cl)c(-c2ccc(F)nc2)c1Br [Example I-27] | 80 | 90 | 100 | 100 | 90 | 90 | 100 | 0 | 80 | 80 | 80 | 100 | 100 | 100 | 90 | 90 | 20 | Post-emergence action against AVEFA in % (Avena fatua (AVEFA) [15]; 80 g/ha): 100%; Post-emergence action against AVEFA in % (Avena fatua (AVEFA) [15]; 320 g/ha): 100%; Post-emergence action against ABUTH in % [16]: 90%; Pre-emergence action against VIOTR in % (Viola tricolor (VIOTR) [4]; dosage 80 g/ha): 100%; Pre-emergence action against ALOMY [17]: 100%; Post-emergence action against ALOMY in % ([18]; 80 g/ha): 80%; Post-emergence action against ALOMY in % ([18]; 320 g/ha): 100%; Post-emergence action against LOLRI in % (Lolium rigidum (LOLRI) [19]; dosage 80 g/ha): 90%; Post-emergence action against LOLRI in % (Lolium rigidum (LOLRI) [19]; dosage 320 g/ha): 90%; Pre-emergence action against VERPE in % ([20]; dosage 80 g/ha): 80%; Pre-emergence action against VERPE in % ([20]; dosage 320 g/ha): 100%; Pre-emergence action against LOLRI in % (Lolium rigidum (LOLRI) [6]; dosage 80 g/ha): 100%; Post-emergence action against POLCO in % ([9]; dosage 80 g/ha): 80%; Post-emergence action against VERPE in % ([21]; 320 g/ha, VERPE): 90%; Post-emergence action against VERPE in % ([21]; dosage 80 g/ha): 80%; Pre-emergence action against POLCO in % ([10]; dosage 80 g/ha): 90%; Pre-emergence action against AMARE in % ([11]; 80 g/ha): 90%; Pre-emergence action against AVEFA in % (Avena fatua (AVEFA) [22]): 100%

Source: US20240041042A1, “1-(PYRIDYL)-5-AZINYLPYRAZOLE DERIVATIVES, AND THEIR USE FOR CONTROL OF UNDESIRED PLANT GROWTH” (Bayer Aktiengesellschaft, priority 2020, published 2024)
